Patent US12448369B2 (Edgewise Therapeutics, Inc., priority 2023, dated 2025)
Marks after values point to notes of the source that are not given here.

Key:
[1] = system: Rabbit Psoas myofibrils (skeletal myosin ATPase); experiment: Myofibril ATPase assay, rabbit psoas (skeletal) myofibrils; type: biochemical; conditions: for Skeletal EC25 (Y125 value, marked ‡): not a Y75 value
Summary of the method: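 Rabbit psoas skeletal myofibrils in PIPES/CaCl2/EGTA pCa buffer, pH 7.0. ATPase rate followed by PK-LDH-coupled NADH loss at 340 nm, read every 1.5–2 min for 75 min. Slopes normalized to vehicle (100%) and fitted to a 4-parameter logistic; values are Y75 (25% inhibition) or Y125 (25% activation) concentrations.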

[2] = system: Porcine atria myofibrils (atrial myosin ATPase); experiment: Myofibril ATPase assay, porcine atria myofibrils; type: biochemical; conditions: for Atrial EC25 (Y125 value, marked ‡): Y125 value (125% activity), not a Y75 value
Summary of the method: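 Coupled PK-LDH reaction links ADP from myosin ATPase to NADH loss, read at 340 nm every 1.5-2 min for 75 min. Slopes (mAU/min) normalized to vehicle-only wells (100%) and fit to a 4-parameter logistic; Y75 is the concentration cutting activity by 25%, Y125 is reported for activators.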

[3] = target: T1, Porcine ventricle myofibrils (ventricular myosin ATPase) (Sus scrofa, UniProt P79293); experiment: Myofibril ATPase assay, porcine ventricle myofibrils; type: biochemical, porcine (Yucatan minipigs)
T1 construct: Myofibrils from porcine cardiac muscle was isolated from the left ventricle of Yucatan minipigs; tissue Exemplar Genetics; host or cells: left ventricle of Yucatan minipigs, myofibrils prepared in house
Summary of the method: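 Left-ventricle myofibrils from Yucatan minipigs were tested with a PK/LDH-coupled system, following NADH loss at 340 nm every 1.5-2 min for 75 min. Slopes were normalized to vehicle wells and fit to a 4-parameter logistic model; values are Y75 (25% ATPase reduction) or Y125 concentrations.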

[4] = Y75 value (no ‡ mark), rabbit psoas myofibrils
[5] = Y75 value (no ‡ mark), porcine atria myofibrils
[6] = Y75 value (no ‡ mark), porcine ventricle myofibrils
[7] = rabbit psoas myofibrils, Y75 value
[8] = porcine atria myofibrils, Y75 value (75% activity relative to no compound)
[9] = porcine ventricle myofibrils, Y75 value

T1 sequence (P79293 whole entry): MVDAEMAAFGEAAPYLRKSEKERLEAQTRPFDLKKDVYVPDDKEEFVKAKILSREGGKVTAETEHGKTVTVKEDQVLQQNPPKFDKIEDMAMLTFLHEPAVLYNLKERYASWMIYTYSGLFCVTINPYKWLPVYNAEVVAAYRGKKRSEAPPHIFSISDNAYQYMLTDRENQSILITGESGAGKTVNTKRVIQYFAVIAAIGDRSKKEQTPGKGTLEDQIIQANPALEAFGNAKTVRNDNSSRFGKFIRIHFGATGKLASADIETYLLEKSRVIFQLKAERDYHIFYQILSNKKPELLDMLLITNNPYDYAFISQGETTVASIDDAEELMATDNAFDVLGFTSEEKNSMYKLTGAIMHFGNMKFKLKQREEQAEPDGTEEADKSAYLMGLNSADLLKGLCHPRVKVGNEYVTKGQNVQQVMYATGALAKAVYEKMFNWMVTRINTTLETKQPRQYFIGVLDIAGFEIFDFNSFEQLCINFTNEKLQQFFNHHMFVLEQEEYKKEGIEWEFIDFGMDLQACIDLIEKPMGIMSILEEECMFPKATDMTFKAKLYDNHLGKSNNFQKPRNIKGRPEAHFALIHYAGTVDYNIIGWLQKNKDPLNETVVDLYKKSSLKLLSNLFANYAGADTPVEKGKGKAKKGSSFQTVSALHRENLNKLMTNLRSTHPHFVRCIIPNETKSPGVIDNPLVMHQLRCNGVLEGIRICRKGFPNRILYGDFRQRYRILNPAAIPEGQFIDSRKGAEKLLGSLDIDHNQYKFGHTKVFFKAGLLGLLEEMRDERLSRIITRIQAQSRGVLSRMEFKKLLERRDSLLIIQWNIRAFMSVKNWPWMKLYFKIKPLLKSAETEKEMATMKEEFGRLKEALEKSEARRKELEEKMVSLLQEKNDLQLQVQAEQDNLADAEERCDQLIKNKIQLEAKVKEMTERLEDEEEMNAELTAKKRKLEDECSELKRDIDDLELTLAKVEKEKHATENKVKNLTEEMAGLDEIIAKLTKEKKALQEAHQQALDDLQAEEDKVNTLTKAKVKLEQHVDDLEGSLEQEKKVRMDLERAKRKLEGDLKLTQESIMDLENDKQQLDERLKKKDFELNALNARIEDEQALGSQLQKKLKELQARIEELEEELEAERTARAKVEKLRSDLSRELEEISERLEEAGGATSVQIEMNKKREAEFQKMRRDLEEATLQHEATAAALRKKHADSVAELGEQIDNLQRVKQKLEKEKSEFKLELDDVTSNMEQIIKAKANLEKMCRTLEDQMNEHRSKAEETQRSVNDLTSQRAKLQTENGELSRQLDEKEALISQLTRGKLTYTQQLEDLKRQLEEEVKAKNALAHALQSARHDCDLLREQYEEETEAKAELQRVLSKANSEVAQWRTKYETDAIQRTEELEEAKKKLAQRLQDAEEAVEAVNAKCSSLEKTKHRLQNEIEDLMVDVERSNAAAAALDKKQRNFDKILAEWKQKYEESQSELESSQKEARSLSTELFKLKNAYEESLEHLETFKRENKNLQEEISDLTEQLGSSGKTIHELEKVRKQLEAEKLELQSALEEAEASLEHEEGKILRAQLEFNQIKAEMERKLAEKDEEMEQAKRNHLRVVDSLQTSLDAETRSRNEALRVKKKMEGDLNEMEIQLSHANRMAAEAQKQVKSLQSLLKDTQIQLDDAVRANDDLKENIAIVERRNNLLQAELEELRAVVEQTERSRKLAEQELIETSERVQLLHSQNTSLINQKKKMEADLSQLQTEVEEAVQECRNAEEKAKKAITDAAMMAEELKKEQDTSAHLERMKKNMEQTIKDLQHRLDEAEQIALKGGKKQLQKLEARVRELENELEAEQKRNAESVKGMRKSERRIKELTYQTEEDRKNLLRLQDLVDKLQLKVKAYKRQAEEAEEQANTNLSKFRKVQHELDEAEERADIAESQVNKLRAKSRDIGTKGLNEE

SMILES | Skeletal EC25 [1, 7] [nM] | Atrial EC25 [2, 8] [nM] | Ventricular EC25 [3, 9] [µM] | other results
Cc1c([C@H](C)C(=O)N[C@@H](C)c2ncc(C#N)cc2F)c(=O)[nH]c2ccc(F)c(F)c12 (single isomer, unassigned) [compound 2603] |  |  |  | Skeletal EC25 [1, 4]: 30 nM; Atrial EC25 [2, 5]: 60 nM; Ventricular EC25 [3, 6]: 0.21 µM
Cc1c(C(F)(F)C(=O)N[C@H](C)c2ncc(C#N)cc2F)c(=O)[nH]c2ccc(F)cc12 (single isomer, unassigned) [compound 2606] |  |  |  | Skeletal EC25 [1, 4]: 100 nM; Atrial EC25 [2, 5]: 80 nM; Ventricular EC25 [3, 6]: 0.77 µM
Cc1c(C(F)(F)C(=O)N[C@@H](C)c2ncc(C#N)cc2F)c(=O)[nH]c2ccc(F)cc12 (single isomer, unassigned) [compound 2607] |  |  |  | Skeletal EC25 [1, 4]: 40 nM; Atrial EC25 [2, 5]: 70 nM; Ventricular EC25 [3, 6]: 0.17 µM
C[C@H](NC(=O)[C@@H](C)c1cc2cc(F)ccc2[nH]c1=O)c1ccc(F)cc1F (single isomer, unassigned) [compound 2608] |  |  |  | Skeletal EC25 [1, 4]: 100000 nM; Atrial EC25 [2, 5]: 100000 nM; Ventricular EC25 ([3]; ‡ Y125 value, not a Y75 value (125% activity relative to no compound), porcine ventricle myofibrils): 44.26‡ μM
C[C@@H](NC(=O)Cc1c(C(F)(F)F)c2c(C3CC3)nccc2[nH]c1=O)c1ncc(C#N)cn1 (single isomer, unassigned) [compound 3001] | 4130 | 1250 | 17.65 | 
C[C@H](NC(=O)Cc1c(C(F)(F)F)c2c(C3CC3)nccc2[nH]c1=O)c1ncc(C#N)cn1 (single isomer, unassigned) [compound 3002] | 100000 | 100000 | 100.00 | 
C[C@@H](NC(=O)Cc1c(C(F)(F)F)c2c(C3CC3)nccc2[nH]c1=O)c1ccc(C#N)nn1 (single isomer, unassigned) [compound 3003] |  |  | 100.00 | Skeletal EC25 (Y125 value, marked ‡) ([1]; rabbit psoas myofibrils): 94.25‡ μM; Atrial EC25 (Y125 value, marked ‡) ([2]; porcine atria myofibrils): 92.51‡ μM
C[C@H](NC(=O)Cc1c(C(F)(F)F)c2c(C3CC3)nccc2[nH]c1=O)c1ccc(C#N)nn1 (single isomer, unassigned) [compound 3004] | 5990 | 10040 | 100.00 | 
C[C@@H](NC(=O)Cc1c(C(F)(F)F)c2c(C3CC3)nccc2[nH]c1=O)c1ccc(C#N)cn1 (single isomer, unassigned) [compound 3005] | 100000 | 100000 | 100.00 | 
C[C@H](NC(=O)Cc1c(C(F)(F)F)c2c(C3CC3)nccc2[nH]c1=O)c1ccc(C#N)cn1 (single isomer, unassigned) [compound 3006] | 100000 |  | 100.00 | Atrial EC25 (Y125 value, marked ‡) ([2]; porcine atria myofibrils): 77.22‡ μM
COc1nccc2[nH]c(=O)c(CC(=O)N[C@H](C)c3ncc(C#N)cn3)c(C(F)(F)F)c12 (single isomer, unassigned) [compound 3007] | 100000 | 100000 | 5.73 | 
COc1nccc2[nH]c(=O)c(CC(=O)N[C@H](C)c3ncc(C#N)cc3F)c(C(F)(F)F)c12 (single isomer, unassigned) [compound 3009] | 100000 | 140 | 2.17 | 
COc1nccc2[nH]c(=O)c(CC(=O)N[C@@H](C)c3ncc(C#N)cc3F)c(C(F)(F)F)c12 (single isomer, unassigned) [compound 3010] | 630 | 700 | 3.57 | 
Cc1c(C(F)(F)C(=O)N[C@H](CO)c2ncc(C#N)cc2F)c(=O)[nH]c2ccnc(C#N)c12 (single isomer, unassigned) [compound 3502] | 80 | 150 | 0.31 | 
Cc1nc(C#N)cnc1[C@@H](C)NC(=O)C(F)(F)c1c(C)c2c(C)nccc2[nH]c1=O (single isomer, unassigned) [compound 3503] | 890 | 3500 | 5.70 | 
Cc1c(C(F)(F)C(=O)N[C@@H](CO)c2ncc(C#N)cc2F)c(=O)[nH]c2ccnc(C#N)c12 (single isomer, unassigned) [compound 3504] | 1040 | 770 | 4.90 | 
Cc1nc(C#N)cnc1[C@H](C)NC(=O)C(F)(F)c1c(C)c2c(C)nccc2[nH]c1=O (single isomer, unassigned) [compound 3505] | 4700 | 1900 | 13.00 | 
Cc1nccc2[nH]c(=O)c(C3(C(=O)N[C@@H](C)c4ncc(C#N)cc4F)CC3)c(C)c12 (single isomer, unassigned) [compound 3507] | 100000 | 2610 | 18.82 | 
C[C@H](NC(=O)Cc1cc2c(F)c(F)ccc2[nH]c1=O)c1cc(C#N)c(F)s1 (single isomer, unassigned) [compound 4003] |  |  |  | Skeletal EC25 ([1]; Y75 value: concentration required to reduce myosin ATP-ase activity by 25%, Rabbit Psoas Prep pCa 25 GEOM_MEAN): 1060 nM; Atrial EC25 ([2]; Y75 value: concentration required to reduce myosin ATP-ase activity by 25%, Porcine Atria Prep pCa 25 GEOM_MEAN): 100000 nM; Ventricular EC25 ([3]; Y75 value: concentration required to reduce myosin ATP-ase activity by 25%, Porcine Ventricle Prep pCa 25 GEOM_MEAN): 100.00 µM

Now from value to compound, other results behind:

Skeletal EC25 [1, 7] [nM] | Atrial EC25 [2, 8] [nM] | Ventricular EC25 [3, 9] [µM] | SMILES | other results
70 | 220 | 0.29 | Cc1nccc2[nH]c(=O)c(C(F)(F)C(=O)N[C@@H](C)c3ccc(C#N)cc3F)c(C)c12 (single isomer, unassigned) [compound 3508] | 
160 | 440 | 1.30 | Cc1c(C(F)(F)C(=O)N[C@H](C)c2ncc(C#N)cc2F)c(=O)[nH]c2ccnc(C#N)c12 (single isomer, unassigned) [compound 3510] | 
260 | 560 | 2.65 | Cc1nccc2[nH]c(=O)c(C(F)(F)C(=O)N[C@H](C)c3ccc(C#N)cc3F)c(C)c12 (single isomer, unassigned) [compound 3511] | 
710 | 1650 |  | Cc1nccc2[nH]c(=O)c(C3(C(=O)N[C@@H](C)c4ccc(C#N)cc4F)CC3)c(C)c12 (single isomer, unassigned) [compound 3512] | Ventricular EC25 (Y125 value, marked ‡) ([3]; porcine ventricle myofibrils, Y125 value, not a Y75 value): 100.00‡ μM
5800 | 4940 | 62.33 | Cc1nccc2[nH]c(=O)c(C(F)(F)C(=O)N[C@H](C)c3ncc(C#N)cc3F)c(C)c12 (single isomer, unassigned) [compound 3513] | 
240 | 510 | 1.49 | Cc1nccc2[nH]c(=O)c(C3(C(=O)N[C@H](C)c4ccc(C#N)cc4F)CC3)c(C)c12 (single isomer, unassigned) [compound 3516] | 
380 | 1120 | 2.11 | Cc1nccc2[nH]c(=O)c(C(F)(F)C(=O)N[C@@H](C)c3ncc(C#N)cc3F)c(C)c12 (single isomer, unassigned) [compound 3517] | 
9370 | 2050 | 100.00 | CC(C(=O)N[C@@H](C)c1ccc(F)cc1F)c1cc2c(C(F)(F)F)nccc2[nH]c1=O (single isomer, unassigned) [compound 3518] | 
 | 940 | 17.07 | Cc1nccc2[nH]c(=O)c(C3(C(=O)N[C@H](C)c4ncc(C#N)cc4F)CC3)c(C)c12 (single isomer, unassigned) [compound 3519] | Skeletal EC25 (Y125 value, marked ‡) ([1]; rabbit psoas myofibrils): 97.12‡ μM
250 | 2380 | 4.50 | Cc1nccc2[nH]c(=O)c(C(F)(F)C(=O)N[C@H](C)c3cnc(C#N)cn3)c(C)c12 (single isomer, unassigned) [compound 3520] | 
2680 | 14610 | 34.58 | Cc1nccc2[nH]c(=O)c(C(F)(F)C(=O)N[C@@H](C)c3cnc(C#N)cn3)c(C)c12 (single isomer, unassigned) [compound 3521] | 
280 | 1100 | 2.90 | Cc1nccc2[nH]c(=O)c(C(F)(F)C(=O)N[C@H](CO)c3ncc(C#N)cc3F)c(C)c12 (single isomer, unassigned) [compound 3522] | 
8730 | 9760 | 21.66 | Cc1nccc2[nH]c(=O)c(C(F)(F)C(=O)N[C@@H](CO)c3ncc(C#N)cc3F)c(C)c12 (single isomer, unassigned) [compound 3523] | 
